Laboratory results as given in patent US12091425B2 (AMGEN INC., priority 2016, dated 2024).
Each block holds one compound with its values, some of them ahead of it.

Legend:
[1] = molecular target: T1, Mcl-1/Bim interaction, recombinant human Mcl-1 (171-327) (Homo sapiens, UniProt Q07820); assay: Cell free Mcl-1: Bim Affinity Assay (Mcl-1 HTRF); format: binding
T1 construct: made in house
Procedure, shortened: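 Biotin-Bim(51-76) peptide, TR-FRET readout, overnight incubation; IC50 from duplicate competition curves, 4-parameter fit.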

[2] = system: OPM-2 human multiple myeloma cell line; assay: Cell Viability Assay (OPM-2 10 FBS); format: cell-based; conditions: OPM-2 cells, CellTiter-Glo
Procedure, shortened: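 Plated at 3000 cells/well in 10% FBS complete medium, the cells received a serial compound dilution series and incubated 16 h at 37 °C with 5% CO2. CellTiter-Glo was then added; IC50 values were fitted with a logistic 4-parameter model.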

[3] = TR-FRET, 0.1 nM Mcl-1 (171-327), 0.05 nM biotin-Bim (51-76)
[4] = Homo sapiens, OPM-2, 16 h, 16 h
[5] = cell free Mcl-1:Bim TR-FRET, recombinant human Mcl-1 (171-327)

T1 sequence (Q07820 171-327): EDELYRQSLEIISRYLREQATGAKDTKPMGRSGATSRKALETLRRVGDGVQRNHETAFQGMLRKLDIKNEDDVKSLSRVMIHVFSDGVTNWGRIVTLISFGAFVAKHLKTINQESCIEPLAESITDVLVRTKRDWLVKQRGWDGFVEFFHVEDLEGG

- IC50 [1, 3]: 0.366 nM
- IC50 [2, 4]: 2790 nM
SMILES: CO[C@H]1/C=C/[C@H](CC#N)C[C@@H](C)S(=O)(=O)NC(=O)c2ccc3c(c2)N(C[C@@H]2CC[C@H]21)C[C@@]1(CCCc2cc(Cl)ccc21)CO3 [Example 203, ((1S,3′R,6′R,7′S,8′E,10′R,12′R)-6-chloro-7′-methoxy-12′-methyl-13′,13′-dioxido-15′-oxo-3,4-dihydro-2H-spiro[naphthalene-1,22′-[20]oxa[13]thia[1,14]diazatetracyclo[14.7.2.0^3,6.0^19,24]pentacosa [8,16,18,24]tetraen]-10′-yl)acetonitrile]

- IC50 [1, 3]: 0.492 nM
- IC50 [2, 4]: 621 nM
SMILES: COCCN1CC/C=C/[C@H](O)[C@@H]2CC[C@H]2CN2C[C@@]3(CCCc4cc(Cl)ccc43)COc3ccc(cc32)C(=O)NS1(=O)=O [Example 31, (1S,3′R,6′R,7′S,8′E)-6-chloro-7′-hydroxy-12′-(2-methoxyethyl)-3,4-dihydro-2H,15′H-spiro[naphthalene-1,22′-[20]oxa[13]thia[1,12,14]triazatetracyclo[14.7.2.0^3,6.0^19,24]pentacosa[8,16,18,24]tetraen]-15′-one 13′,13′-dioxide]

- IC50 [1, 3]: 2.38 nM
- IC50 [2, 4]: 1170 nM
SMILES: COCCO[C@H]1/C=C\C[C@H](C)N(CCOC)S(=O)(=O)NC(=O)c2ccc3c(c2)N(C[C@@H]2CC[C@H]21)C[C@@]1(CCCc2cc(Cl)ccc21)CO3 (single isomer, unassigned) [Example 65]

- IC50 [1, 5]: 0.141 nM
- IC50 [2, 4]: 24200 nM
SMILES: C[C@H]1C/C=C/[C@H](OCC(=O)O)[C@@H]2CC[C@H]2CN2C[C@@]3(CCCc4cc(Cl)ccc43)COc3ccc(cc32)C(=O)NS(=O)(=O)[C@H]1C [Example 739, (((1S,3′R,6′R,7′S,8′E,11′S,12′S)-6-chloro-11′,12′-dimethyl-13′,13′-dioxido-15′-oxo-3,4-dihydro-2H-spiro[naphthalene-1,22′-[20]oxa[13]thia [1,14]diazatetracyclo[14.7.2.0^3,6.0^19,24]pentacosa[8,16,18,24]tetraen]-7′-yl)oxy)acetic Acid]

- IC50 [1, 3]: 0.393 nM
- IC50 [2, 4]: 870 nM
SMILES: C[C@@H]1[C@@H](C)C/C=C/[C@H](OCCS(N)(=O)=O)[C@@H]2CC[C@H]2CN2C[C@@]3(CCCc4cc(Cl)ccc43)COc3ccc(cc32)C(=O)NS1(=O)=O [Example 15, 2-(((1S,3′R,6′R,7′S,8′E,11′S,12′R)-6-chloro-11′,12′-dimethyl-13′,13′-dioxido-15′-oxo-3,4-dihydro-2H-spiro[naphthalene-1,22′-[20]oxa[13]thia[1,14]diazatetracyclo[14.7.2.0^3,6.0^19,24]pentacosa[8,16,18,24]tetraen]-7′-yl)oxy)ethanesulfonamide]

- IC50 [1, 3]: 3.8 nM
- IC50 [2, 4]: 25000 nM
SMILES: CC1C=CC(O)C2CCC2CN2CC3(CCCc4cc(Cl)ccc43)COc3ccc(cc32)C(=O)NS(=O)(=O)C1 (single isomer, unassigned) [Example 165]

- IC50 [1, 3]: 2.54 nM
- IC50 [2, 4]: 3730 nM
SMILES: CC1CCCS(=O)(=O)NC(=O)c2ccc3c(c2)N(CC2CCC2C(O)C1)CC1(CCCc2cc(Cl)ccc21)CO3 (single isomer, unassigned) [Example 240]

- IC50 [1, 3]: 0.245 nM
- IC50 [2, 4]: 844 nM
SMILES: CONC(=O)CO[C@H]1/C=C/C[C@H](C)[C@@H](C)S(=O)(=O)NC(=O)c2ccc3c(c2)N(C[C@@H]2CC[C@H]21)C[C@@]1(CCCc2cc(Cl)ccc21)CO3 [Example 301, 2-(((1S,3′R,6′R,7′S,8′E,11′S,12′R)-6-chloro-11′,12′-dimethyl-13′,13′-dioxido-15′-oxo-3,4-dihydro-2H-spiro[naphthalene-1,22′-[20]oxa[13]thia[1,14]diazatetracyclo[14.7.2.0^3,6.0^19,24]pentacosa [8,16,18,24]tetraen]-7′-yl)oxy)-N-methoxyacetamide]

- IC50 [1, 3]: 1.16 nM
- IC50 [2, 4]: 44.2 nM
SMILES: COC(=O)CCO[C@H]1/C=C/C[C@H](C)NS(=O)(=O)NC(=O)c2ccc3c(c2)N(C[C@@H]2CC[C@H]21)C[C@@]1(CCCc2cc(Cl)ccc21)CO3 [Example 70, methyl 3-(((1S,3′R,6′R,7′S,8′E,11′S)-6-chloro-11′-methyl-13′,13′-dioxido-15′-oxo-3,4-dihydro-2H-spiro [naphthalene-1,22′-[20]oxa[13]thia[1,12,14]triazatetracyclo[14.7.2.0^3,6.0^19,24]pentacosa[8,16,18,24]tetraen]-7′-yl)oxy)propanoate]

- IC50 [1, 3]: 0.386 nM
- IC50 ([2]; 16 h): 228 nM
SMILES: C[C@@]12C/C=C/[C@H](O)[C@@H]3CC[C@H]3CN3C[C@@]4(CCCc5cc(Cl)ccc54)COc4ccc(cc43)C(=O)NS(=O)(=O)[C@H]1CCC2 (single isomer, unassigned) [Example 130]

- IC50 [1, 3]: 0.263 nM
- IC50 [2, 4]: 296 nM
SMILES: COC[C@H]1[C@@H](C)C/C=C\[C@H](O)[C@@H]2CC[C@H]2CN2C[C@@]3(CCCc4cc(Cl)ccc43)COc3ccc(cc32)C(=O)NS1(=O)=O (single isomer, unassigned) [Example 457]

The next lines start with the compound.

SMILES: COc1ccc(CN2[C@@H](C)C/C=C\[C@H](O)[C@@H]3CC[C@H]3CN3C[C@@]4(CCCc5cc(Cl)ccc54)COc4ccc(cc43)C(=O)NS2(=O)=O)cc1 (single isomer, unassigned) [Example 81]
- IC50 [1, 3]: 38.5 nM
- IC50 [2, 4]: 6440 nM

SMILES: C=CCN1CC/C=C/[C@H](O)[C@@H]2CC[C@H]2CN2C[C@@]3(CCCc4cc(Cl)ccc43)COc3ccc(cc32)C(=O)NS1(=O)=O [Example 42, (1S,3′R,6′R,7′S,8′E)-6-chloro-7′-hydroxy-12′-(2-propen-1-yl)-3,4-dihydro-2H,15′H-spiro[naphthalene-1,22′-[20]oxa[13]thia[1,12,14]triazatetracyclo[14.7.2.0^3,6.0^19,24]pentacosa[8,16,18,24]tetraen]-15′-one 13′,13′-dioxide]
- IC50 [1, 3]: 0.57 nM
- IC50 [2, 4]: 842 nM

SMILES: C[C@@H]1[C@@H](C)C/C=C/[C@H](OCC(=O)N2CCC(O)CC2)[C@@H]2CC[C@H]2CN2C[C@@]3(CCCc4cc(Cl)ccc43)COc3ccc(cc32)C(=O)NS1(=O)=O [Example 312, (1S,3′R,6′R,7′S,8′E,11′S,12′R)-6-chloro-7′-(2-(4-hydroxy-1-piperidinyl)-2-oxoethoxy)-11′,12′-dimethyl-3,4-dihydro-2H,15′H-spiro[naphthalene-1,22′-[20]oxa[13]thia[1,14]diazatetracyclo[14.7.2.0^3,6.0^19,24]pentacosa [8,16,18,24]tetraen]-15′-one 13′,13′-dioxide]
- IC50 [1, 3]: 0.153 nM
- IC50 [2, 4]: 1000 nM

SMILES: CC[C@@H]1CC/C=C/[C@H](OCc2nccs2)[C@@H]2CC[C@H]2CN2C[C@@]3(CCCc4cc(Cl)ccc43)COc3ccc(cc32)C(=O)NS1(=O)=O [Example 990, (1S,3′R,6′R,7′S,8′E,12′R)-6-chloro-12′-ethyl-7′-(1,3-thiazol-2-ylmethoxy)-3,4-dihydro-2H,15′H-spiro[naphthalene-1,22′-[20]oxa[13]thia[1,14]diazatetracyclo[14.7.2.0^3,6.0^19,24]pentacosa [8,16,18,24]tetraen]-15′-one 13′,13′-dioxide]
- IC50 [1, 3]: 3.08 nM
- IC50 ([2]; Homo sapiens, OPM-2, 16 h, 16 h incubation): 2230 nM

SMILES: C[C@@H]1[C@@H](C)C/C=C/[C@H](OCC(=O)N2CC(N3CCCC3)C2)[C@@H]2CC[C@H]2CN2C[C@@]3(CCCc4cc(Cl)ccc43)COc3ccc(cc32)C(=O)NS1(=O)=O [Example 309, (1S,3′R,6′R,7′S,8′E,11′S,12′R)-6-chloro-11′,12′-dimethyl-7′-(2-oxo-2-(3-(1-pyrrolidinyl)-1-azetidinyl)ethoxy)-3,4-dihydro-2H,15′H-spiro[naphthalene-1,22′-[20]oxa[13]thia[1,14]diazatetracyclo[14.7.2.0^3,6.0^19,24]pentacosa [8,16,18,24]tetraen]-15′-one 13′,13′-dioxide]
- IC50 [1, 3]: 0.0805 nM
- IC50 [2, 4]: 414 nM

SMILES: COC(=O)CO[C@H]1/C=C/CC[C@@H](C2CC2)S(=O)(=O)NC(=O)c2ccc3c(c2)N(C[C@@H]2CC[C@H]21)C[C@@]1(CCCc2cc(Cl)ccc21)CO3 (single isomer, unassigned) [Example 161]
- IC50 [1, 3]: 1.31 nM
- IC50 ([2]; 16 h): 86 nM

SMILES: O=C1NS(=O)(=O)CCC[C@]2(O)CCO[C@H](C2)[C@@H]2CC[C@H]2CN2C[C@@]3(CCCc4cc(Cl)ccc43)COc3ccc1cc32 (single isomer, unassigned) [Example 901]
- IC50 [1, 5]: 0.568 nM
- IC50 ([2]; 16 h): 5500 nM

SMILES: Cc1ccc(S(=O)(=O)NCCO[C@H]2/C=C/C[C@H](C)[C@@H](C)S(=O)(=O)NC(=O)c3ccc4c(c3)N(C[C@@H]3CC[C@H]32)C[C@@]2(CCCc3cc(Cl)ccc32)CO4)cc1 [Example 726, N-(2-(((1S,3′R,6′R,7′S,8′E,11′S,12′R)-6-chloro-11′,12′-dimethyl-13′, 13′-dioxido-15′-oxo-3,4-dihydro-2H-spiro[naphthalene-1,22′-[20]oxa[13]thia[1,14]diazatetracyclo[14.7.2.0^3,6.0^19,24]pentacosa[8,16,18,24]tetraene]-7′-yl)oxy)ethyl)4-methylbenzenesulfonamide]
- IC50 [1, 5]: 12.2 nM
- IC50 [2, 4]: 2140 nM

SMILES: CO[C@H]1/C=C/CC[C@@H](CCO)S(=O)(=O)NC(=O)c2ccc3c(c2)N(C[C@@H]2CC[C@H]21)C[C@@]1(CCCc2cc(Cl)ccc21)CO3 (single isomer, unassigned) [Example 617]
- IC50 [1, 5]: 0.221 nM
- IC50 ([2]; 16 h): 11500 nM

SMILES: CO[C@H]1/C=C/CC[C@@H](C(=O)N(C)C)S(=O)(=O)NC(=O)c2ccc3c(c2)N(C[C@@H]2CC[C@H]21)C[C@@]1(CCCc2cc(Cl)ccc21)CO3 (single isomer, unassigned) [Example 452]
- IC50 [1, 3]: 0.277 nM
- IC50 ([2]; 16 h): 775 nM

SMILES: CC[C@@H]1C[C@@H](C)/C=C/[C@H](OCCOC)[C@@H]2CC[C@H]2CN2C[C@@]3(CCCc4cc(Cl)ccc43)COc3ccc(cc32)C(=O)NS1(=O)=O (single isomer, unassigned) [Example 1025]
- IC50 [1, 3]: 0.411 nM
- IC50 ([2]; 16 h incubation): 141 nM
